Measurements published in US5801150A, “Aminopyri(mi)dine derivatives combined with amino acids, and pharmacological activities thereof” (priority 1993, dated 1998).

Legend:
[1] = Capture of the hydroxyl radical: Fenton reaction, oxidative degradation of deoxyribose (532 nm); assay type: biochemical; settings: for k Obtained (speed constant of the reaction with OH°): individual values of 2 or 3 tests; for k Obtained (speed constant of the reaction with OH°) / Mean k (speed constant of the reaction with OH°): pH 7.4, 37° C.; for Mean k (speed constant of the reaction with OH°): mean of 2 or 3 tests; for speed constant with respect to mannitol: ratio to mannitol
Description: The Fenton reaction, the catalytic decomposition of hydrogen peroxide (H2 O2) by the action of Fe^2+, has been used to produce the hydroxyl radical Because of its widespread use, the test of oxidative degradation of deoxyribose has been selected for our study. The hydroxyl radical generated by the Fenton reaction degrades the deoxyribose and produces malonaldehyde which forms a colored complex with thiobarbituric acid. This complex is quantified by colorimetry at a wavelength of 532 nm. This methodology can be represented by the following scheme: [drawing 11] The speed constants have been determined by using the Halliwell method with modifications. The final kinematic equation is the following [formula] A and A0 : absorbances at 532 nm of the complex in the presence and in the absence of the studied derivative. kS and kd : speed constants of the reaction of OH° with the studied derivative and deoxyribose. S and D: concentrations of studied derivative and of deoxyribose. kx : term representing the reactivity of the radical OH° reacting with reagents of the Fenton reaction. In tracing the straight line 1/A as a function of the concentration S, the speed constant kS is determined. […] The reaction is initiated by the addition of the iron EDTA complex (0.13 mM (NH4)2 Fe(SO4)2; 0.143 mM EDTA). After 15 mins. of incubation at 37° C., the reaction is stopped by the addition of 1.5 ml of cold trichloroacetic acid (TCA) (2.8%). 1 ml of this solution is mixed with 1 ml of thiobarbituric acid (TBA) (1% in 0.05M NaOH) and heated for 15 mins. at 100° C. Then, the specimens are cooled and quantified at 532 nm.

[2] = Sensing superoxide anion: auto-oxidation of adrenaline (adrenochrome at 480 nm); assay type: biochemical; settings: for % of inhibition: pH 10.2; for IC50: superoxide anion, adrenaline auto-oxidation, read-out: concentration at which there is obtained 50% inhibition
Description: The methods used can produce selectively a chosen type of FR (superoxide anion or hydroxyl radical). The detector must be able to detect proportionally all the FR formed.
Step of production and detection of FR: the radicular source supplies the free radical which will react with a detector to form a modified detector. This latter could be quantified directly or after interaction with an analytic reaction complement by spectrophotometric analysis. [drawing 9]
Determination either of the percent of sensing or of the speed constant of the sensor: a sensor enters into competition with the detector to form a modified sensor. There is obtained a reduction of the quantity of the modified detector which gives us, after mathematical analysis, either the speed constant of the reaction of the sensor with the radical, or the percentage of sensing of this radical by the sensor.
The methodology is the auto-oxidation of adrenaline: adrenaline plays the double role of producing superoxide anion and serving as a detector. Adrenaline which is stable at acid pH, oxidizes spontaneously at alkaline pH. This complex reaction gives after several steps, adrenochrome. The superoxide anion participates in it as an oxidizing agent. The formation of adrenochrome is followed at 480 nm. [drawing 10] Capture of the superoxide anion: oxidation of adrenaline
The reaction medium is constituted by 3.1 ml of sodium carbonate (0.05M) at pH 10.2 containing EDTA (0.1 mM). The oxidation reaction is initiated by the addition of 0.2 ml of adrenaline (0.01M, in 0.02N HCl). The formation of adrenochrome is followed for 2 mins. at 480 nm. The compounds to be studied are added with the aide of 0.02 ml of DMSO, before the addition of adrenaline.
The capacity of the substances to sense the superoxide anion is expressed in terms of percentage of inhibition (%I). [formula] A0 and A are respectively the absorbance of the detector modified in the absence and in the presence of the derivative studied.

[3] = literature value; cited from earlier work
keratinocytes, hair = settings: topical, cited from earlier work
[4] = topical application, cited from earlier work
[5] = apart from SOD; cited from earlier work

Structure (SMILES)	k Obtained (speed constant of the reaction with OH°) [1]	Mean k (speed constant of the reaction with OH°) [1]	% of inhibition ([2]; Conc. 0.1 mM)	% of inhibition ([2]; Conc. 0.2 mM)	% of inhibition ([2]; Conc. 0.3 mM)	% of inhibition ([2]; Conc. 0.5 mM)	% of inhibition ([2]; Conc. 0.6 mM)	IC50 [2]	Literature k (speed constant of the reaction with OH°) [3]	also measured
CSCCC(NC(C)=O)C(=O)Nc1cc(N2CCCCC2)nc(NC(=O)C(CCSC)NC(C)=O)[n+]1[O-] (racemic) [Disubstituted (N-acetyl-methionine), diamide of 2,4-diamino-6-piperidinopyrimidine-3-oxide and N-acetyl-D,L-methionine]	19.40-19.50 10^9 M^-1.s^-1	19.45 10^9 M^-1.s^-1	10.56%	15.62%	25.99%	38.71%	43.75%	~670 µM	–	speed constant with respect to mannitol [1]: more than eleven times; % of inhibition ([2]; Conc. 0.4 mM): 30.77%; % of inhibition ([2]; Conc. 0.7 mM): 53.22%
CSCCC(NC(C)=O)C(=O)Nc1cc(N2CCCCC2)nc(N)[n+]1[O-] (racemic) [Monosubstituted (N-acetyl-methionine), amide of 2,4-diamino-6-piperidinopyrimidine-3-oxide and N-acetyl-D,L-methionine]	13.10-13.40 10^9 M^-1.s^-1	13.25 10^9 M^-1.s^-1	7.57%	14.49%	19.38%	27.17%	32.01%	–	–	% of inhibition ([2]; Conc. 0.4 mM): 25.71%; % of inhibition ([2]; Conc. 0.6 mM, listed as monosubstituted compound): 32%
OC[C@@H](O)[C@@H](O)[C@H](O)[C@H](O)CO [Mannitol]	1.52-1.84 10^9 M^-1.s^-1	1.68 10^9 M^-1.s^-1	–	–	–	–	–	–	1.8 10^9 M^-1.s^-1	–
CSCC[C@H](N)C(=O)O [Methionine]	5.02-5.36 10^9 M^-1.s^-1	5.19 10^9 M^-1.s^-1	–	–	–	–	–	–	6.5 10^9 M^-1.s^-1	–
Nc1cc(N2CCCCC2)nc(N)[n+]1[O-] [Minoxidil, 2,4-diamino-6-piperidinopyrimidine-3-oxide]	10.20-11.40 10^9 M^-1.s^-1	10.80 10^9 M^-1.s^-1	25.62%	41.86%	57.20%	74.12%	82.70%	~250 µM	–	growth of keratinocytes and of hair (keratinocytes, hair; certain subjects having androgenic alopecy): stimulates the in vitro and in vivo growth of keratinocytes, and the growth of hair; time of use to appearance of the growth phenomenon (keratinocytes, hair; varies as a function of the subjects): about four months (or more); % of inhibition ([2]; Conc. 0.05 mM): 11.71%; average quantity of the applied dose reaching the blood stream ([4]; average): 1.4%; quantity of the applied dose reaching the blood stream, range ([4]; range of values): 0.3 to 4.5%
CSCC[C@H](NC(C)=O)C(=O)O [N-acetyl-methionine]	–	6.02 10^9 M^-1.s^-1	–	–	–	–	not observed activity	–	6.7 10^9 M^-1.s^-1	inhibition ([2]; 2 mM): 10%
Nc1cc(N2CCCCC2)nc(N)n1 [Reduced minoxidil]	8.47-9.16 10^9 M^-1.s^-1	8.81 10^9 M^-1.s^-1	–	–	–	–	–	–	–	speed constant with respect to mannitol [1]: five times
N[C@@H](CS)C(=O)O [cysteine]	–	–	–	–	–	–	–	~51 µM	–	reactivity with respect to the superoxide anion [5]: most reactive with respect to the superoxide anion; % of inhibition ([2]; cysteine 0.005 mM): 6.52%; % of inhibition ([2]; cysteine 0.008 mM): 8.58%; % of inhibition ([2]; cysteine 0.01 mM): 9.61%; % of inhibition ([2]; cysteine 0.03 mM): 31.72%; % of inhibition ([2]; cysteine 0.04 mM): 34.45%; % of inhibition ([2]; cysteine 0.05 mM): 46.71%; % of inhibition ([2]; cysteine 0.06 mM): 51.93%; % of inhibition ([2]; cysteine 0.07 mM): 57.17%
